According to patent US20230085307A1, “PYRIDAZINONE COMPOUND AND HERBICIDE” (NISSAN CHEMICAL CORPORATION, priority 2019, published 2023):

Key:
false cleavers = test: Test Example 4: herbicidal effect by soil treatment (Table 19, symbol Q); assay type: in vivo, false cleavers (Galium spurium); conditions: amount of applied herbicide 320 g/ha
Procedure, shortened: (§1)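 Applied as a water-diluted emulsion, the compound was sprayed onto soil covering newly sown seeds. Evaluation came three weeks after application, in a greenhouse held at 25° C. to 30° C.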

lambsquarters = test: Test Example 4: herbicidal effect by soil treatment (Table 19, symbol O); assay type: in vivo, lambsquarters (Chenopodium album); conditions: amount of applied herbicide 320 g/ha
Procedure, shortened: as §1

Italian ryegrass [1] = test: Test Example 4: herbicidal effect by soil treatment (Table 19, symbol K); assay type: in vivo, Italian ryegrass (Lolium multiflorum); conditions: amount of applied herbicide 320 g/ha
Procedure, shortened: as §1

late watergrass = test: Test Example 1: herbicidal activity, application before weed generation under submerged conditions (Table 16, symbol A); assay type: in vivo, late watergrass (Echinochloa oryzicola); conditions: amount of applied herbicide 320 g/ha
Procedure, shortened: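 Alluvial soil was flooded to 4 cm depth, weed seeds were sown mixed and 2.5-leaf rice seedlings were transplanted. On sowing day, the compound's emulsion, diluted in water to a set dose, was applied to the water surface. Plants grew at 25–30 °C and were scored 0–5 after three weeks.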

green foxtail = test: Test Example 4: herbicidal effect by soil treatment (Table 19, symbol G); assay type: in vivo, green foxtail (Setaria viridis); conditions: amount of applied herbicide 320 g/ha
Procedure, shortened: as §1

oval-leafed pondweed = test: Test Example 2: herbicidal activity, application during weed generation under submerged conditions (Table 17, symbol C); assay type: in vivo, oval-leafed pondweed (Monochoria vaginalis); conditions: AAH 320 g/ha; application during weed generation, submerged conditions
Procedure, shortened: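 Steps: fill Wagner pots with alluvial soil; add water to give 4 cm depth; sow the species mixed; grow under glass at 25–30° C.; at 1–2 leaves apply water-diluted emulsion formulation to the water surface at a fixed herbicide amount; score after 3 weeks.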

windgrass [2] = test: Test Example 5: herbicidal effect by foliage application, plastic box (Table 20, symbol L); assay type: in vivo, windgrass (Apera spica-venti); conditions: foliage application, 320 g/ha, three weeks after application
Procedure, shortened: (§2)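 Sow seeds spot-wise in sterilized diluvial soil; cover with ~1.5 cm soil. Grow 14 days in greenhouse, 25° C. to 30° C. Spray foliage with emulsion diluted to predetermined amount. Rate effect after 3 weeks.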

wild oat = test: Test Example 4: herbicidal effect by soil treatment (Table 19, symbol I); assay type: in vivo, wild oat (Avena fatua); conditions: amount of applied herbicide 320 g/ha
Procedure, shortened: as §1

persian speedwell = test: Test Example 4: herbicidal effect by soil treatment (Table 19, symbol R); assay type: in vivo, Persian speedwell (Veronica persica); conditions: amount of applied herbicide 320 g/ha
Procedure, shortened: as §1

velvetleaf [3] = test: Test Example 4: herbicidal effect by soil treatment (Table 19, symbol M); assay type: in vivo, velvetleaf (Abutilon theophrasti); conditions: amount of applied herbicide 320 g/ha
Procedure, shortened: as §1

barnyard grass = test: Test Example 5: herbicidal effect by foliage application, plastic box (Table 20, symbol H); assay type: in vivo, barnyard grass (Echinochloa crus-galli); conditions: foliage application, 320 g/ha, three weeks after application
Procedure, shortened: as §2

Italian ryegrass [4] = test: Test Example 5: herbicidal effect by foliage application, plastic box (Table 20, symbol K); assay type: in vivo, Italian ryegrass (Lolium multiflorum); conditions: foliage application, 320 g/ha, three weeks after application
Procedure, shortened: as §2

rice flat sedge = test: Test Example 3: herbicidal effect by foliage application, Wagner pot (Table 18, symbol E); assay type: in vivo, rice flat sedge (Cyperus iria); conditions: for herbicidal effect on E: rice flat sedge: amount of applied herbicide 320 g/ha
Procedure, shortened: (§3)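 Plants were sown in alluvial soil held under 0.1–0.5 cm standing water and grown 14 days in a greenhouse at 25–30 °C. An emulsifiable formulation, water-diluted to the set dose, was then sprayed onto the foliage, and effects were scored three weeks later using previously defined criteria.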

windgrass [5] = test: Test Example 4: herbicidal effect by soil treatment (Table 19, symbol L); assay type: in vivo, windgrass (Apera spica-venti); conditions: amount of applied herbicide 320 g/ha
Procedure, shortened: as §1

Chinese sprangletop = test: Test Example 3: herbicidal effect by foliage application, Wagner pot (Table 18, symbol D); assay type: in vivo, chinese sprangletop (Leptochloa chinensis); conditions: for herbicidal effect on D: Chinese sprangletop: amount of applied herbicide 320 g/ha
Procedure, shortened: as §3

chickweed = test: Test Example 5: herbicidal effect by foliage application, plastic box (Table 20, symbol P); assay type: in vivo, common chickweed (Stellaria media); conditions: foliage application, 320 g/ha, three weeks after application
Procedure, shortened: as §2

velvetleaf [6] = test: Test Example 5: herbicidal effect by foliage application, plastic box (Table 20, symbol M); assay type: in vivo, velvetleaf (Abutilon theophrasti); conditions: foliage application, 320 g/ha, three weeks after application
Procedure, shortened: as §2

Row | SMILES | Herbicidal effect, A: late watergrass (late watergrass) | herbicidal effect rating, C: oval-leafed pondweed (oval-leafed pondweed) | L: windgrass, herbicidal effect grade (windgrass [2]) | H: barnyard grass, herbicidal effect grade (barnyard grass) | K: Italian ryegrass, herbicidal effect grade (Italian ryegrass [4]) | P: chickweed, herbicidal effect grade (chickweed) | M: velvetleaf, herbicidal effect grade (velvetleaf [6]) | herbicidal effect, Q: false cleavers (false cleavers) | herbicidal effect, O: lambsquarters (lambsquarters) | herbicidal effect, K: Italian ryegrass (Italian ryegrass [1]) | herbicidal effect, G: green foxtail (green foxtail) | herbicidal effect, I: wild oat (wild oat) | herbicidal effect, R: persian speedwell (persian speedwell) | herbicidal effect, M: velvetleaf (velvetleaf [3]) | herbicidal effect on E: rice flat sedge (rice flat sedge) | herbicidal effect, L: windgrass (windgrass [5]) | herbicidal effect on D: Chinese sprangletop (Chinese sprangletop) | further results
1 | CCOc1ccc2c(-c3c(O)c(C)nn(C)c3=O)c(-c3ccc(OC)cc3)sc2c1 [3-091] | 0 (Herbicidal rate of 5% or less (almost no effect)) | 3 (Herbicidal rate of 40% or more and less than 70%) | 0 (Herbicidal rate of 5% or less (almost no effect)) | 3 (Herbicidal rate of 40% or more and less than 70%) | 0 (Herbicidal rate of 5% or less (almost no effect)) | 5 (Herbicidal rate of 90% or more (almost completely withered)) | 4 (Herbicidal rate of 70% or more and less than 90%) | – | – | – | – | – | – | – | – | – | – | Q: false cleavers, herbicidal effect grade (false cleavers): 5 (Herbicidal rate of 90% or more (almost completely withered)); O: lambsquarters, herbicidal effect grade (lambsquarters): 5 (Herbicidal rate of 90% or more (almost completely withered)); K: Italian ryegrass, herbicidal effect grade (Italian ryegrass [1]): 0 (Herbicidal rate of 5% or less (almost no effect)); G: green foxtail, herbicidal effect grade (green foxtail): 0 (Herbicidal rate of 5% or less (almost no effect)); I: wild oat, herbicidal effect grade (wild oat): 0 (Herbicidal rate of 5% or less (almost no effect)); R: persian speedwell, herbicidal effect grade (persian speedwell): 5 (Herbicidal rate of 90% or more (almost completely withered)); M: velvetleaf, herbicidal effect grade (velvetleaf [3]): 0 (Herbicidal rate of 5% or less (almost no effect)); herbicidal effect on rice flat sedge (E) (rice flat sedge; 320 g/ha): 4 (Herbicidal rate of 70% or more and less than 90%); L: windgrass, herbicidal effect grade (windgrass [5]): 0 (Herbicidal rate of 5% or less (almost no effect)); herbicidal effect on Chinese sprangletop (D) (Chinese sprangletop; 320 g/ha): 0 (Herbicidal rate of 5% or less (almost no effect))
2 | COc1cc(F)ccc1-c1sc2cc(F)ccc2c1-c1c(O)c(C)nn(C)c1=O [3-009] | 1 (Herbicidal rate of 5% or more and less than 20%) | 3 (Herbicidal rate of 40% or more and less than 70%) | 5 (Herbicidal rate of 90% or more (almost completely withered)) | 5 (Herbicidal rate of 90% or more (almost completely withered)) | 5 (Herbicidal rate of 90% or more (almost completely withered)) | 5 (Herbicidal rate of 90% or more (almost completely withered)) | 5 (Herbicidal rate of 90% or more (almost completely withered)) | 5 (Herbicidal rate of 90% or more (almost completely withered)) | 5 (Herbicidal rate of 90% or more (almost completely withered)) | 4 (Herbicidal rate of 70% or more and less than 90%) | 4 (Herbicidal rate of 70% or more and less than 90%) | 4 (Herbicidal rate of 70% or more and less than 90%) | 5 (Herbicidal rate of 90% or more (almost completely withered)) | 3 (Herbicidal rate of 40% or more and less than 70%) | 5 (Herbicidal rate of 90% or more (almost completely withered)) | 5 (Herbicidal rate of 90% or more (almost completely withered)) | 5 (Herbicidal rate of 90% or more (almost completely withered)) | –
3 | CCCC(=O)Oc1c(C)nn(C)c(=O)c1-c1c(-c2ccc3c(c2)OCCO3)sc2cc(F)ccc12 [3-014] | 5 (Herbicidal rate of 90% or more (almost completely withered)) | 5 (Herbicidal rate of 90% or more (almost completely withered)) | 0 (Herbicidal rate of 5% or less (almost no effect)) | 3 (Herbicidal rate of 40% or more and less than 70%) | 1 (Herbicidal rate of 5% or more and less than 20%) | 5 (Herbicidal rate of 90% or more (almost completely withered)) | 5 (Herbicidal rate of 90% or more (almost completely withered)) | 2 (Herbicidal rate of 20% or more and less than 40%) | 4 (Herbicidal rate of 70% or more and less than 90%) | 0 (Herbicidal rate of 5% or less (almost no effect)) | 0 (Herbicidal rate of 5% or less (almost no effect)) | 0 (Herbicidal rate of 5% or less (almost no effect)) | 5 (Herbicidal rate of 90% or more (almost completely withered)) | 0 (Herbicidal rate of 5% or less (almost no effect)) | 4 (Herbicidal rate of 70% or more and less than 90%) | 0 (Herbicidal rate of 5% or less (almost no effect)) | 0 (Herbicidal rate of 5% or less (almost no effect)) | –
4 | CCCC(=O)Oc1c(C)nn(C)c(=O)c1-c1c(-c2ccc(OC)cc2)sc2cc(F)ccc12 [3-008] | 5 (Herbicidal rate of 90% or more (almost completely withered)) | 4 (Herbicidal rate of 70% or more and less than 90%) | 3 (Herbicidal rate of 40% or more and less than 70%) | 4 (Herbicidal rate of 70% or more and less than 90%) | 3 (Herbicidal rate of 40% or more and less than 70%) | 5 (Herbicidal rate of 90% or more (almost completely withered)) | 5 (Herbicidal rate of 90% or more (almost completely withered)) | 2 (Herbicidal rate of 20% or more and less than 40%) | 5 (Herbicidal rate of 90% or more (almost completely withered)) | 0 (Herbicidal rate of 5% or less (almost no effect)) | 0 (Herbicidal rate of 5% or less (almost no effect)) | 0 (Herbicidal rate of 5% or less (almost no effect)) | 5 (Herbicidal rate of 90% or more (almost completely withered)) | 0 (Herbicidal rate of 5% or less (almost no effect)) | 5 (Herbicidal rate of 90% or more (almost completely withered)) | 0 (Herbicidal rate of 5% or less (almost no effect)) | 4 (Herbicidal rate of 70% or more and less than 90%) | –
